In patent US20100286183A1, “SPIROHYDANTOIN COMPOUNDS AND METHODS FOR THE MODULATION OF CHEMOKINE RECEPTOR ACTIVITY” (priority 2005, published 2010):
Where a name gives a salt, the structure may show the parent alone.

Test system: HIV-1Ba-L
Experiment: HIV-1 Replication in PM1 Cell Culture Assay
Type: cell-based
Conditions: Human immunodeficiency virus 1, 144 h; PM1 cell line infected with HIV-1Ba-L, 6 days, reverse transcriptase assay of supernatant; read-out: IC50 μM HIV-1 PM1
From the text: C:HIV-1 Replication in PM1 Cell Culture Assay
Evaluation of the in vitro anti-HIV-1Ba-L activity in PM1 cell line: PM1 cell line which is a continuous CD4+ T-cell clone originally derived from a neoplastic T-cell line is used. PM1 is characterized by a unique susceptibility to a wide range of HIV-1 isolates, including primary and biologically pure macrophage-tropic isolates. Drugs are serially diluted (9 concentrations in duplicates) and added to wells of a flat bottom 96-well plate. PM1 cells are infected with HIV-1Ba-L at a multiplicity of infection of 0.5 for a period of 3 hours. Unbound viruses are removed by washing the cells two times through centrifugation followed by seeding the cells into a 96-well plate in the presence of the serially diluted test compounds with final concentrations ranging from 0.00256 to 5000 ηM. Thereafter, plates were incubated for a period of 6 days at 37° C. in a CO2 incubator. Thereafter, culture supernatants are collected at day 6 and stored at −80° C. for viral quantification. The amount of virus present in cell culture supernatants is quantified using a reverse transcriptase assay. The concentration causing 50% inhibition of viral replication (IC50) is calculated using Graph Pad Prism software.

Row | SMILES | IC50 [µM]
1 | CC(C)(C)OC(=O)N1C[C@H](CN2CCC3(CC2)NC(=O)N(Cc2ccc(Br)cc2)C3=O)[C@@H](c2ccccc2)C1 [Compound 1, (3S,4S)-3-[3-(4-Bromo-benzyl)-2,4-dioxo-1,3,8-triaza-spiro[4.5]dec-8-ylmethyl]-4-phenyl-pyrrolidine-1-carboxylic acid tert-butyl ester] | < 1
2 | COc1ccc(CN2C(=O)NC3(CCN(C[C@H]4CN(C(=O)OC(C)(C)C)C[C@@H]4c4ccccc4)CC3)C2=O)cc1 [Compound 2, (3S,4S)-3-[3-(4-Methoxy-benzyl)-2,4-dioxo-1,3,8-triaza-spiro[4.5]dec-8-ylmethyl]-4-phenyl-pyrrolidine-1-carboxylic acid tert-butyl ester] | < 1
3 | CC(C)(C)OC(=O)N1C[C@H](CN2CCC3(CC2)NC(=O)N(Cc2ccc(S(C)(=O)=O)cc2)C3=O)[C@@H](c2ccccc2)C1 [Compound 3, (3S,4S)-3-[3-(4-Methanesulfonyl-benzyl)-2,4-dioxo-1,3,8-triaza-spiro[4.5]dec-8-ylmethyl]-4-phenyl-pyrrolidine-1-carboxylic acid tert-butyl ester] | < 1

Same assay, conditions: Human immunodeficiency virus 1, PM1, 144 h, read-out: IC50 μM HIV-1 PM1

Row | SMILES | IC50 [µM]
4 | CCC(=O)N1C[C@H](CN2CCC3(CC2)NC(=O)N(Cc2ccc(S(C)(=O)=O)cc2)C3=O)[C@@H](c2ccccc2)C1 [Compound 15, 3-(4-Methanesulfonyl-benzyl)-8-((3S,4S)-4-phenyl-1-propionyl-pyrrolidin-3-ylmethyl)-1,3,8-triaza-spiro[4.5]decane-2,4-dione hydrochloride] | < 1
5 | CC1(C(=O)N2C[C@H](CN3CCC4(CC3)NC(=O)N(Cc3ccc(S(C)(=O)=O)cc3)C4=O)[C@@H](c3ccccc3)C2)CC1 [Compound 16, 3-(4-Methanesulfonyl-benzyl)-8-[(3S,4S)-1-(1-methyl-cyclopropanecarbonyl)-4-phenyl-pyrrolidin-3-ylmethyl]-1,3,8-triaza-spiro[4.5]decane-2,4-dione hydrochloride] | < 1
6 | CS(=O)(=O)c1ccc(CN2C(=O)NC3(CCN(C[C@H]4CN(C(=O)CC5CC5)C[C@@H]4c4ccccc4)CC3)C2=O)cc1 [Compound 17, 8-[(3S,4S)-1-(2-Cyclopropyl-acetyl)-4-phenyl-pyrrolidin-3-ylmethyl]-3-(4-methanesulfonyl-benzyl)-1,3,8-triaza-spiro[4.5]decane-2,4-dione hydrochloride] | < 1
7 | CS(=O)(=O)c1ccc(CN2C(=O)NC3(CCN(C[C@H]4CN(C(=O)C5CCCC5)C[C@@H]4c4ccccc4)CC3)C2=O)cc1 [Compound 18, 8-((3S,4S)-1-Cyclopentanecarbonyl-4-phenyl-pyrrolidin-3-ylmethyl)-3-(4-methanesulfonyl-benzyl)-1,3,8-triaza-spiro[4.5]decane-2,4-dione hydrochloride] | < 1
8 | CS(=O)(=O)c1ccc(CN2C(=O)NC3(CCN(C[C@H]4CN(C(=O)C5CCC(F)(F)CC5)C[C@@H]4c4ccccc4)CC3)C2=O)cc1 [Compound 19, 8-[(3S,4S)-1-(4,4-Difluoro-cyclohexanecarbonyl)-4-phenyl-pyrrolidin-3-ylmethyl]-3-(4-methanesulfonyl-benzyl)-1,3,8-triaza-spiro[4.5]decane-2,4-dione hydrochloride] | < 1
9 | CS(=O)(=O)c1ccc(CN2C(=O)NC3(CCN(C[C@H]4CN(C(=O)c5ccccc5F)C[C@@H]4c4ccccc4)CC3)C2=O)cc1 [Compound 20, 8-[(3S,4S)-1-(2-Fluoro-benzoyl)-4-phenyl-pyrrolidin-3-ylmethyl]-3-(4-methanesulfonyl-benzyl)-1,3,8-triaza-spiro[4.5]decane-2,4-dione hydrochloride] | < 1
10 | CS(=O)(=O)c1ccc(CN2C(=O)NC3(CCN(C[C@H]4CN(C(=O)c5ccccc5Cl)C[C@@H]4c4ccccc4)CC3)C2=O)cc1 [Compound 21, 8-[(3S,4S)-1-(2-Chloro-benzoyl)-4-phenyl-pyrrolidin-3-ylmethyl]-3-(4-methanesulfonyl-benzyl)-1,3,8-triaza-spiro[4.5]decane-2,4-dione hydrochloride] | < 1
11 | CN(C)S(=O)(=O)c1ccc(CN2C(=O)NC3(CCN(C[C@H]4CN(C(=O)C5CCC(F)(F)CC5)C[C@@H]4c4ccccc4)CC3)C2=O)cc1 [Compound 22, 4-{8-[(3S,4S)-1-(4,4-Difluoro-cyclohexanecarbonyl)-4-phenyl-pyrrolidin-3-ylmethyl]-2,4-dioxo-1,3,8-triaza-spiro[4.5]dec-3-ylmethyl}-N,N-dimethyl-benzenesulfonamide hydrochloride] | < 1
12 | CC(C)(C)CC(=O)N1C[C@H](CN2CCC3(CC2)NC(=O)N(Cc2ccc(S(C)(=O)=O)cc2)C3=O)[C@@H](c2ccccc2)C1 [Compound 23, 8-[(3S,4S)-1-(3,3-Dimethyl-butyryl)-4-phenyl-pyrrolidin-3-ylmethyl]-3-(4-methanesulfonyl-benzyl)-1,3,8-triaza-spiro[4.5]decane-2,4-dione hydrochloride] | < 1
13 | CCCN1C(=O)N(CC)C2(CCN(C[C@H]3CN(C(=O)CC(C)(C)C)C[C@@H]3c3ccccc3)CC2)C1=O [Compound 24, 8-[(3S,4S)-1-(3,3-Dimethyl-butyryl)-4-phenyl-pyrrolidin-3-ylmethyl]-1-ethyl-3-propyl-1,3,8-triaza-spiro[4.5]decane-2,4-dione hydrochloride] | < 1
